# Test results reported in patent publication US7378428B2, “Nitrogen-containing bicyclic compounds and drugs containing the same as the active ingredient” (Ono Pharmaceutical Co., Ltd., priority 2002, dated 2008).
# Target: T1, Human CB2 receptors (Homo sapiens, UniProt P34972)
# T1 construct: expressed in transfected cells; host or cells: CHO cells
# Assay: In vitro signaling assay: inhibition of forskolin-induced cAMP production in human CB2 receptor expressing CHO cells
# Format: cell-based
# Settings: 10 μM forskolin, 15 minutes at room temperature
# Procedure: Human CB2 receptors expressed CHO cells were used for the assays. Cells were dispersed seeded in 96-well plates in a density of 5×10^4 cells/well, and were subjected to experiment the next day. After removing the culture media 1 mM isobutylmethylxanthine (IBMX) solution was added, and cells were incubated for 10 minutes at room temperature. Next, a mixture of 10 μM forskolin and the compound of the present invention was added. After additional incubation for 15 minutes at room temperature, the culture supernatant was discarded and 200 μl of lysis reagent (attached to a cAMP EIA) was added. The amounts of cAMP of the lysate were determined by a cAMP EIA kit (Amersham) under conditions of the forskolin-induced cAMP production. The compound of the present invention was dissolved in DMSO and the solution was diluted to adjust the final concentration of DMSO to 0.1%. IC50 values were calculated from the inhibitory ratio of the compound of the present invention toward the amount of the forskolin-induced cAMP production. By the same experiment using CHO cells, it was confirmed that this inhibitory effect toward cAMP production by the compound was mediated via the human CB2 receptors.
# T1 sequence (P34972 whole entry): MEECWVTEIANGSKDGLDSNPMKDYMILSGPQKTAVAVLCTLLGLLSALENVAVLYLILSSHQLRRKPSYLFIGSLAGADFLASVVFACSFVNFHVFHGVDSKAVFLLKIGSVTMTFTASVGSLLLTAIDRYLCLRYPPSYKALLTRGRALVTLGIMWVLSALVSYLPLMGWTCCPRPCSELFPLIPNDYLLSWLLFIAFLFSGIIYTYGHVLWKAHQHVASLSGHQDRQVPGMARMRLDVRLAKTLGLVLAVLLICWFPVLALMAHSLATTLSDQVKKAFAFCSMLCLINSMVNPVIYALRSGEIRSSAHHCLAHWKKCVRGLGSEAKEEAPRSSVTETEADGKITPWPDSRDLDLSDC
row,IC50 [nM],SMILES
1,5.3,"CC1(C)Cc2cc(C#N)c(C#N)cc2/C(=C/C(=O)C2CCOCC2)N1 [46(3), (Z)-2-(6,7-dicyano-3,3-dimethyl-3,4-dihydro-(2H)-isoquinolin-1-ylidene)-1-(tetrahydropyran-4-yl)ethan-1-one]"
2,5.2,"Cc1cc2c(cc1O)/C(=C/C(=O)C13CC4CC(CC(C4)C1)C3)NC(C)(C)C2 [47(4), (Z)-2-(7-hydroxy-3,3,6-trimethyl-3,4-dihydro-(2H)-isoquinolin-1-ylidene)-1-(adamantan-1-yl)ethan-1-one]"
3,4.1,"Cc1cc2c(cc1O)/C(=C/C(=O)C1CCCCCC1)NC(C)(C)C2 [47(6), (Z)-2-(7-hydroxy-3,3,6-trimethyl-3,4-dihydro-(2H)-isoquinolin-1-ylidene)-1-cycloheptylethan-1-one]"
4,3.3,"COc1ccc2c(c1)C(C)(C)N/C2=C\C(=O)c1ccccc1OC [57(2), (Z)-2-(5-methoxy-3,3-dimethyl-2,3-dihydro-(2H)-isoindol-1-ylidene)-1-(2-methoxyphenyl)ethan-1-one]"

# Target: T2, PDE7 (Homo sapiens, UniProt Q13946)
# T2 sequence (Q13946 whole entry): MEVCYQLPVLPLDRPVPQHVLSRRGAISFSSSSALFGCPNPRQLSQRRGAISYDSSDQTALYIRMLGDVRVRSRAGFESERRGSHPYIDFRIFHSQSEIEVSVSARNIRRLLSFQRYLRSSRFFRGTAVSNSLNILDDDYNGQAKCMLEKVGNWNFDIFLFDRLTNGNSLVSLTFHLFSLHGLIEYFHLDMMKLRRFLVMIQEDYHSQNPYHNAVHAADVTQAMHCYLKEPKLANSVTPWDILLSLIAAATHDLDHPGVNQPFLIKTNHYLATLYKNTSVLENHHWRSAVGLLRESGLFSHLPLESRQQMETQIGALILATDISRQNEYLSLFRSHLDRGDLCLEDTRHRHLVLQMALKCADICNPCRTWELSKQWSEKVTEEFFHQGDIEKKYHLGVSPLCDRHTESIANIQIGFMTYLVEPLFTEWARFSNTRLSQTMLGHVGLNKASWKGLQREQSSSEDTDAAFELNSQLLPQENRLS
# Assay: not given
# Settings: J. Biol. Chem., 268, 12925 (1993); cited from earlier work
row,SMILES,inhibition of PDE7
1,COc1ccc(C2CNC(=O)C2)cc1OC1CCCC1 (stereo not shown) [rolipram],not inhibited

# Target: T2, PDE7
# Assay: In vitro enzyme assay: PDE7 inhibitory activity
# Format: biochemical
# Parameters: endogenous in cells; host or cells: HuT78 cells; soluble fraction separated on a MonoQ anion-exchange column
# Settings: PDE7 fraction from HuT78 cells, 30 minutes at room temperature
# Procedure: HuT78 cells (derived from human T cell lymphocyte) were cultured in PRMI1640 medium containing 10% bovine fetus serum. 2 L of cells (approximately 8×10^8 cells) were collected, and they were homogenized in a buffer [50 mmol/l tris hydrochloric acid buffer containing 1 mmol/l dithiothreitol (DTT), 2 mmol/l ethylenediamine tetraacetate disodium (EDTA-2Na). After centrifugation (50,000 rpm, 4° C., 1 hour), the supernatant was collected, and filtered over 0.22 μm filter and the filtrate was fractionated by column chromatography on MonoQ (Pharmacia, hard negative ion exchange column) using the filtrate as soluble portion. The PDE activity of the fraction eluted by the concentration gradient of NaCl of 0-0.8 mol/L was measured using 1 μmol/l of cAMP as a substrate. Fractions where PDE activity is not inhibited by 10 μmol/l of rolipram ([…]) are collected. As to the PDE activity of these fractions, substrate-specificity against cAMP and Michaelis-Menten constant were measured and sensitivity to rolipram was confirmed. Then the fractions which show specificity and high affinity to cAMP which are non-sensitive fractions to rolipram were identified as PDE7. The fractions were used as an enzyme liquor for the measurement of PDE inhibitory activity.
# PDE7 inhibitory activity of the compound of the present invention of was evaluated by the following method. 70 μl of diluted enzyme solution, 10 μl of the solution of the compound of the present invention (10% in DMSO), 10 μl of reaction buffer solution [50 mmol/l MgCl2, 1 mg/ml bovine serum albumin, 200 mmol/l tris hydrochloric acid buffer (pH 8.0) containing 40 mmol/l 2-mercaptoethanol] in 96 well plate and it was incubated for 30 minutes at room temperature. It was microwaved for 2.5 minutes to terminate the reaction. It was centrifuged (2,000 rpm for 1 minute) and thereto was added 10 μl of 1 mg/ml snake venom (Sigma, cat. V7000) and it was incubated for 30 minutes at room temperature. The […] (50 μl) was applied to alumina column (100 μl). Purified ^3H-adenosine was eluted with 0.005N hydrochloric acid (80 μl) and its radioactivity of the elute was measured.
# PDE7 inhibitory activity of the present invention was evaluated by the activity inhibitory percentage calculated from the following equation. Activity inhibitory percentage (%)=(1-radioactivity in the presence of the compound of the present invention/radioactivity in the absence of the compound of the present invention)×100
row,IC50 [nM],SMILES
1,27,"COc1ccc2c(c1)/C(=C/C(=O)c1ccc(NC(N)=O)cc1)NC(C)(C)C2 [Example 73, (Z)-2-(7-methoxy-3,3-dimethyl-3,4-dihydro-(2H)-isoquinolin-1-ylidene)-1-(4-((aminocarbonyl)amino)phenyl)ethan-1-one]"
2,970,"COc1ccccc1C(=O)/C=C1\NC(C)(C)Cc2ccc(Cl)cc21 [11(43), (Z)-2-(7-chloro-3,3-dimethyl-3,4-dihydro-(2H)-isoquinolin-1-ylidene)-1-(2-methoxyphenyl)ethan-1-one]"
3,760,"CC1(C)Cc2ccc(Cl)cc2/C(=C/C(=O)C23CC4CC(CC(C4)C2)C3)N1 [11(79), (Z)-2-(7-chloro-3,3-dimethyl-3,4-dihydro-(2H)-isoquinolin-1-ylidene)-1-(adamantan-1-yl)ethan-1-one]"
4,150,"COc1ccc2c(c1)/C(=C/C(=O)c1ccc(C#N)cc1)NC(C)(C)C2 [11(35), (Z)-2-(7-methoxy-3,3-dimethyl-3,4-dihydro-(2H)-isoquinolin-1-ylidene)-1-(4-cyanophenyl)ethan-1-one]"
5,1100,"COc1ccccc1C(=O)/C=C1\NC(C)(C)Cc2cc(Cl)ccc21 [12(15), (Z)-2-(6-chloro-3,3-dimethyl-3,4-dihydro-(2H)-isoquinolin-1-ylidene)-1-(2-methoxyphenyl)ethan-1-one]"
6,370,"CNc1ccc2c(c1)/C(=C/C(=O)c1ccc(C#N)cc1)NC(C)(C)C2 [11(162), (Z)-2-(7-methylamino-3,3-dimethyl-3,4-dihydro-(2H)-isoquinolin-1-ylidene)-1-(4-cyanophenyl)ethan-1-one]"
7,270,"COc1ccc2c(c1)CC(C)(C)N/C2=C\C(=O)C1CCCCC1 [12(7), (Z)-2-(6-methoxy-3,3-dimethyl-3,4-dihydro-(2H)-isoquinolin-1-ylidene)-1-cyclohexylethan-1-one]"
8,23,"COc1ccc2c(c1)/C(=C/C(=O)c1ccc(N)cc1)NC2(C)C [Example 58, (Z)-2-(6-methoxy-3,3-dimethyl-2,3-dihydro-(2H)-isoindol-1-ylidene)-1-(4-aminophenyl)ethan-1-one]"
